This is an account of results in patent US20260008775A1, “AZOLE MODULATORS OF CHOLESTEROL BIOSYNTHESIS AND THEIR USE FOR PROMOTING REMYELINATION” (GENENTECH, INC., priority 2022, published 2026).

The target of test [1] is human emopamil binding protein and human 7-dehydrocholesterol reductase (hEBP-DHCR7) (Homo sapiens (Human), UniProt Q15125). The test can be described thus: hEBP-DHCR7 radioligand binding assay (filter binding, membranes of co-expressing HEK293 cells). As to conditions: competition with [3H] radioligand, 8 doses 0.06 to 5000 nM, Ki calculated from IC50. In a few lines: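 Compound, either single dose 1 μM or eight 5-fold dilutions from 0.06 to 5000 nM, competed with a [3H]-labelled ligand added at 25 nM for binding to co-expressing HEK293 membranes. IC50 came from nonlinear regression, with full block and DMSO as controls, then Cheng–Prusoff conversion to Ki.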

The subject of test [2] is zymostenol accumulation (EBP) in EpiSC-derived OPCs. In words: GC/MS-based sterol profiling, zymostenol accumulation in EpiSC-derived OPCs. It counts as cell-based, mouse. As to conditions: Mus musculus, 24 h, EpiSC-derived OPCs, 24 hr, 8 doses from 0.15 nM to 333 nM; read-out: Mouse Zymostenol GCMS EC50. In a few lines:
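Zymostenol level is expressed relative to that after 24 h with 100 nM positive-control reference, measured by full-scan GC/MS (m/z 458) with cholesterol-d7 internal standard after BSTFA derivatisation. Cells were EpiSC-derived OPCs, 100,000/well in N2B27 without growth factors, treated 24 h, from two or more independent platings.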

In test [3] the test system is EpiSC-derived OPCs. In words: In vitro phenotypic screening of OPCs, MBP high-content imaging (percentage of oligodendrocytes). As to conditions: Mus musculus, 72 h, 3 days, MBP stain, dose-response 0.5 nM to 1000 nM; read-out: OPC EC50. It counts as cell-based, mouse. In a few lines:
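EC50 was fitted by Hill equation to the MBP-positive oligodendrocyte percentage from imaging of fixed, MBP- and DAPI-stained cells. Treatment lasted 3 days at 37 °C, final doses 0.5–1000 nM over 8 points, in growth factor-free N2B27. Cells were EpiSC-derived OPCs, tested in at least two independent platings.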

human emopamil binding protein and human 7-dehydrocholesterol reductase (hEBP-DHCR7), sequence (Q15125 whole entry): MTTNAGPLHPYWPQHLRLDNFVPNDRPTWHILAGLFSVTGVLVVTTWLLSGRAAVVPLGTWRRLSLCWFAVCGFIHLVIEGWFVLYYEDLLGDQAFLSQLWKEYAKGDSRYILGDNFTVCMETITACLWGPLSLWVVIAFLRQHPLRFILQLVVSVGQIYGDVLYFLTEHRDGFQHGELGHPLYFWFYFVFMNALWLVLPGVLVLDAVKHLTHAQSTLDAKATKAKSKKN

What is called Ki is the dissociation constant of the complex between target and ligand, obtained from inhibition or displacement. As usually defined, the EC50 is the midpoint of the concentration-response curve. In the case of `CC(C)n1nc(-c2ccc(C(F)(F)F)nc2)nc1[C@@H]1CC[C@@H](N2CCOCC2)C1` [Compound 104, 4-((1R,3R)-3-(1-Isopropyl-3-(6-(trifluoromethyl)pyridin-3-yl)-1H-1,2,4-triazol-5-yl)cyclopentyl)morpholine], in test [1], the Ki was 0.0192 µM. Also, the EC50 in test [2] was 0.052 µM; in test [3], 0.433 µM.
The like results for `CC(C)n1nc(-c2ccc(C(F)(F)F)nc2)nc1[C@@H]1CC[C@H](N2CCOCC2)C1` [Compound 105, 4-((1S,3R)-3-(1-Isopropyl-3-(6-(trifluoromethyl)pyridin-3-yl)-1H-1,2,4-triazol-5-yl)cyclopentyl)morpholine] were, in that order, 0.00889 µM, 0.00315 µM and 0.0117 µM.
With `CC(C)n1nc(-c2cc(C(F)(F)F)ncn2)cc1[C@H]1[C@@H]2C[C@H](N3CCOC[C@H]3C)C[C@@H]21` [Compound 106, (R)-4-((1R,3r,5S,6R)-6-(1-Isopropyl-3-(6-(trifluoromethyl)pyrimidin-4-yl)-1H-pyrazol-5-yl)bicyclo[3.1.0]hexan-3-yl)-3-methylmorpholine], the Ki in test [1] is 0.0151 µM. In addition, the figures for the EC50 in test [2] and in test [3] were 0.00387 µM and 0.0114 µM, respectively.
With `CC(C)n1nc(-c2cncc(C(F)(F)F)n2)cc1[C@H]1[C@@H]2C[C@@H](N3CCOCC3)C[C@@H]21` [Compound 107, 4-((1R,3s,5S,6r)-6-(1-Isopropyl-3-(6-(trifluoromethyl)pyrazin-2-yl)-1H-pyrazol-5-yl)bicyclo[3.1.0]hexan-3-yl)morpholine], the inhibitory constant (Ki) in test [1] is 0.0117 µM. Further, the EC50 in test [2] turned out to be 0.00486 µM; in test [3] it was 0.0308 µM.
In the same order, the values of `CC(C)n1nc(-c2cncc(C(F)(F)F)c2)nc1[C@H]1[C@@H]2C[C@H](N3CCOC[C@H]3C)C[C@@H]21` [Compound 120, (R)-4-((1R,3r,5S,6R)-6-(1-Isopropyl-3-(5-(trifluoromethyl)pyridin-3-yl)-1H-1,2,4-triazol-5-yl)bicyclo[3.1.0]hexan-3-yl)-3-methylmorpholine] are 0.016 µM, 0.00125 µM and 0.0028 µM.
In the same order, the values of `CC[C@@H]1CN([C@@H]2CC[C@H](c3nc(-c4ccc(C(F)(F)F)nc4)nn3C(C)C)C2)CCO1` [Compound 127, (R)-2-Ethyl-4-((1R,3S)-3-(1-isopropyl-3-(6-(trifluoromethyl)pyridin-3-yl)-1H-1,2,4-triazol-5-yl)cyclopentyl)morpholine] are 0.0571 µM, 0.00132 µM and 0.006 µM.
Consider `CC(C)n1nc(-c2cnc(C(F)(F)F)nc2)nc1[C@H]1CC[C@@H](N2CCO[C@H](C)C2)C1` [Compound 144, (R)-4-((1R,3S)-3-(1-isopropyl-3-(2-(trifluoromethyl)pyrimidin-5-yl)-1H-1,2,4-triazol-5-yl)cyclopentyl)-2-methylmorpholine], for which, in test [1], the Ki was 0.325 µM. For the same compound, the EC50 in test [2] turned out to be 0.0057 µM; in test [3], 0.048 µM.
In the same order, the values of `CC[C@@H]1CN([C@H]2CC[C@@H](c3nc(-c4cnc(C(F)(F)F)nc4)nn3C(C)C)C2)CCO1` [Compound 152, (R)-2-Ethyl-4-((1S,3R)-3-(1-isopropyl-3-(2-(trifluoromethyl)pyrimidin-5-yl)-1H-1,2,4-triazol-5-yl)cyclopentyl)morpholine] are 3.42 µM, 0.00214 µM and 0.017 µM.
For the compound `CC(C)n1nc(-c2ccc(C(F)(F)F)c(F)c2)nc1[C@H]1CC[C@@H](N2CCO[C@H](CF)C2)C1` [Compound 160, (S)-4-((1R,3S)-3-(3-(3-Fluoro-4-(trifluoromethyl)phenyl)-1-isopropyl-1H-1,2,4-triazol-5-yl)cyclopentyl)-2-(fluoromethyl)morpholine], the Ki in test [1] is 0.0327 µM. Besides, the EC50 in test [2] was 0.00103 µM; in test [3], 0.0327 µM.
As to `CC(C)n1nc(-c2cnc(C(F)(F)F)nc2)nc1[C@H]1CC[C@@H](N2CCO[C@H](CF)C2)C1` [Compound 161, (S)-2-(Fluoromethyl)-4-((1R,3S)-3-(1-isopropyl-3-(2-(trifluoromethyl)pyrimidin-5-yl)-1H-1,2,4-triazol-5-yl)cyclopentyl)morpholine], the Ki in test [1] is 0.0893 µM. The EC50 is 0.024 µM in test [2] and 0.0893 µM in test [3].
With `CC(C)n1nc(-c2cncc(C(F)(F)F)c2)nc1[C@H]1[C@@H]2C[C@@H](N3CCO[C@H](C)C3)C[C@@H]21` [Compound 162, (R)-4-((1R,3s,5S,6R)-6-(1-Isopropyl-3-(5-(trifluoromethyl)pyridin-3-yl)-1H-1,2,4-triazol-5-yl)bicyclo[3.1.0]hexan-3-yl)-2-methylmorpholine], the Ki in test [1] was 0.838 µM. The EC50 was 0.371 µM in test [2] and 0.838 µM in test [3].
In the case of `CC(C)n1nc(-c2cncc(C(F)(F)F)c2)nc1[C@H]1[C@@H]2C[C@H](N3CCO[C@H](C)C3)C[C@@H]21` [Compound 163, (R)-4-((1R,3r,5S,6R)-6-(1-Isopropyl-3-(5-(trifluoromethyl)pyridin-3-yl)-1H-1,2,4-triazol-5-yl)bicyclo[3.1.0]hexan-3-yl)-2-methylmorpholine], the Ki in test [1] was 0.0328 µM. Further, the EC50 in test [2] came to 0.00436 µM; in test [3] it was 0.0328 µM.
Regarding `CC(C)n1nc(-c2cccc(C(F)(F)F)c2)cc1[C@H]1[C@@H]2C[C@H](N3CCOCC3)C[C@@H]21` [Compound 170, 4-((1R,3r,5S,6r)-6-(1-Isopropyl-3-(3-(trifluoromethyl)phenyl)-1H-pyrazol-5-yl)bicyclo[3.1.0]hexan-3-yl)morpholine], the Ki in test [1] was 0.00687 µM. The EC50 in test [2] came to 0.00298 µM; in test [3], 0.00533 µM.
The like results for `CC(C)n1nc(-c2ccnc(C(F)(F)F)c2)cc1[C@H]1[C@@H]2C[C@H](N3CCOCC3)C[C@@H]21` [Compound 172, 4-((1R,3r,5S,6r)-6-(1-Isopropyl-3-(2-(trifluoromethyl)pyridin-4-yl)-1H-pyrazol-5-yl)bicyclo[3.1.0]hexan-3-yl)morpholine] were, in that order, 0.0134 µM, 0.004 µM and 0.00827 µM.
The like results for `CC(C)n1nc(-c2ccc(C(F)(F)F)cc2)cc1[C@H]1[C@@H]2C[C@H](N3CCOCC3)C[C@@H]21` [Compound 173, 4-((1R,3r,5S,6r)-6-(1-Isopropyl-3-(4-(trifluoromethyl)phenyl)-1H-pyrazol-5-yl)bicyclo[3.1.0]hexan-3-yl)morpholine] were, in that order, 0.00781 µM, 0.004 µM and 0.0223 µM.
Consider `CC(C)n1nc(-c2cccc(C(F)(F)F)c2)cc1[C@H]1[C@@H]2C[C@@H](N3CCCOCC3)C[C@@H]21` [Compound 175*, 4-((1R,3r,5S,6r)-6-(1-Isopropyl-3-(3-(trifluoromethyl)phenyl)-1H-pyrazol-5-yl)bicyclo[3.1.0]hexan-3-yl)-1,4-oxazepane], for which the Ki in test [1] is 0.0142 µM. In addition, the values for the EC50 in test [2] and in test [3] were 0.00546 µM and 0.0113 µM, respectively.
The like results for `CC(C)n1nc(-c2cccc(C(F)(F)F)c2)cc1[C@H]1[C@@H]2C[C@H](N3CCCOCC3)C[C@@H]21` [Compound 176*, 4-((1R,3s,5S,6r)-6-(1-isopropyl-3-(3-(trifluoromethyl)phenyl)-1H-pyrazol-5-yl)bicyclo[3.1.0]hexan-3-yl)-1,4-oxazepane] were, in that order, 0.00864 µM, 0.00171 µM and 0.00182 µM.
In the same order, the values of `CC(C)n1nc(-c2cncc(Cl)c2)cc1[C@H]1[C@@H]2C[C@@H](N3CCCOCC3)C[C@@H]21` [Compound 177*, 4-((1R,3s,5S,6r)-6-(3-(5-Chloropyridin-3-yl)-1-isopropyl-1H-pyrazol-5-yl)bicyclo[3.1.0]hexan-3-yl)-1,4-oxazepane] are 0.0155 µM, 0.00416 µM and 0.00982 µM.
In the same order, the values of `CC(C)n1nc(-c2cncc(Cl)c2)cc1[C@H]1[C@@H]2C[C@H](N3CCCOCC3)C[C@@H]21` [Compound 178*, 4-((1R,3r,5S,6r)-6-(3-(5-chloropyridin-3-yl)-1-isopropyl-1H-pyrazol-5-yl)bicyclo[3.1.0]hexan-3-yl)-1,4-oxazepane] are 0.0358 µM, 0.0656 µM and 0.555 µM.
Consider `CC(C)n1nc(-c2ccc(C#N)cc2)cc1[C@H]1[C@@H]2C[C@H](N3CCCOCC3)C[C@@H]21` [Compound 179*, 4-(5-((1R,3r,5S,6r)-3-(1,4-Oxazepan-4-yl)bicyclo[3.1.0]hexan-6-yl)-1-isopropyl-1H-pyrazol-3-yl)benzonitrile], for which the inhibition constant (Ki) in test [1] is 0.0109 µM. Besides, the EC50 in test [2] was 0.000952 µM; in test [3], 0.0264 µM.
Take `CC(C)n1nc(-c2ccc(C#N)cc2)cc1[C@H]1[C@@H]2C[C@@H](N3CCCOCC3)C[C@@H]21` [Compound 180*, 4-(5-((1R,3s,5S,6r)-3-(1,4-oxazepan-4-yl)bicyclo[3.1.0]hexan-6-yl)-1-isopropyl-1H-pyrazol-3-yl)benzonitrile]: in test [1], the Ki was 0.0306 µM. The EC50 amounted to 0.0245 µM in test [2] and 0.124 µM in test [3].
